Assays:
[1] = target: T1, CNOT7-FKBP12(F36V) fusion protein (Homo sapiens, UniProt Q9UIV1); experiment: Biochemical gel assay: degradation/deadenylation of RNA substrate with immunoprecipitated CNOT7-FKBP12(F36V); set-up: key to Activity by gel: +: an activity observed as compared to DMSO control; −: no activity observed as compared to DMSO control; settings: for interference with the ability of CNOT7 to degrade RNA: compound added to the CNOT7 and RNA mixture (FIG. 11); for Activity by gel: Table 8, degradation of RNA, compared to DMSO control
T1 construct: expressed in transfected cells; host or cells: H1299 cells; anti-HA immunoprecipitation, HA-peptide elution
Description: Biochemical reporter systems were generated to evaluate the ability of CNOT7 binding compounds to accelerate the degradation of RNA by CNOT7. […] Generation of the target RNA was described in the previous experiment. […] The bifunctional molecules consist of Compound 1-4 and the following rSM:
which binds to the RNA sequence of AST-X, or the rSM linked to a tag that binds CNOT7-FKBPV. Specifically, the tag is compound AP1867 (CAS NO.: 195514-23-9), a known binder of FKBPV, resulting in the rSM-AP1867tag. The CNOT7-FKBPV is obtained by immunoprecipitation of cell engineered to express CNOT-FKBPV. Specifically, H1299 cells were transfected with plasmid expressing HA-tagged CNOT7-FKBP12(F36V) fusion protein. After 24 hours, cells were pelleted and lysed in the following lysis buffer: 20 mM HEPES pH 7.3, 0.2 mM EGTA, 10% glycerol, 0.1 mM DTT with cOmplete EDTA-free protease inhibitors (Millipore). After freeze-thawing, NaCl was added to a concentration of 400 mM and lysates were pelleted to clear cellular debris. Cleared lysate was adjusted to buffer conditions containing 0.1% NP-40 and 150 mM NaCl before being applied to Pierce Anti-HA magnetic beads (ThermoFisher) at 4° C. for 2-20 hours with end-over-end rotation. After washing, bound protein was competitively eluted with 2 mg/mL HA peptide (ThermoFisher) in activity assay buffer at 4° C. for 2-20 hours. It should be appreciated that this immunoprecipitation protocol will result in tagged CNOT7 that will likely have other components of the CCR4-NOT complex bound as well.
The reactions were incubated at 37° C., with specified timepoints removed from the reaction and combined with 2× formamide RNA loading buffer with 10 mM EDTA before boiling for 3 minutes to quench the reaction. Samples were run on a pre-warmed 15% TBE-Urea polyacrylamide gel at 180V for 90 minutes and then imaged using Cy2 settings on the Azure Biosystems 600 Imaging System. […] It should be noted that the CCR4-NOT complex includes proteins other than CNOT7, for instance CNOT6, that have deadenylation and/or exonuclease activity.
These findings were confirmed in the biochemical assay described above. […] In contrast, literature compounds that are active site binders, compounds A, B and C, structure depicted on the right-hand side, do interfere with the ability of CNOT7 to degrade RNA (See center panel of gel).
Heterobifunctional molecules were generated by conjugating the rSM depicted above, which binds RNA with an AST-X sequence, to AP1867 (a small molecule binder of FKBP12(F36V)), resulting in rSM-AP1867tag. In addition, I-243 was conjugated to the rSM resulting in compounds 1-329 and I-371, depicted in FIG. 17. Fluorescently labeled RNA substrates were refolded in the presence of Mg^2+ and incubated 10, 25, or 50 μM doses of heterobifunctional molecules for 30 minutes at room temperature before the enzymatic reaction was initiated with the elution fraction (containing CNOT7-FKBP12(F36V) fusion protein) from the immunoprecipitation protocol above. The reactions were incubated at 37° C., with specified timepoints removed from the reaction and combined with 2× formamide RNA loading buffer with 10 mM EDTA before boiling for 3 minutes to quench the reaction. Samples were run on a pre-warmed 15% TBE-Urea polyacrylamide gel at 180V for 120 minutes and then imaged using Cy2 settings on the Azure Biosystems 600 Imaging System (See FIGS. 18, 19A and 19B). In addition, for 1-371 and the control rSM-AP1867tag, the disappearance of the full-length substrate band was quantified using ImageJ and plotted over time (FIG. 19B).

[2] = target: T2, CNOT7 (Homo sapiens, UniProt Q9UIV1); experiment: Binding of compounds to CNOT7 by surface plasmon resonance (SPR)
T2 construct: biotin (biotinylated); purchased Ichor Life Sciences
Summary of the method: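 Biotinylated CNOT7 captured on a streptavidin chip (~7,500 RU); compounds injected at several concentrations (120 s association, 120 s dissociation, 30 ul/min) in 20 mM HEPES pH7.5, 100 mM KCl, 3 mM MgCl2, 1 mM TCEP, 0.05% tween-20, 2% DMSO. Reference- and solvent-corrected sensograms fit to a 1:1 steady-state affinity model.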

[3] = target: T2, CNOT7; experiment: AMP competition assay by SPR (active site vs other site of CNOT7); format: binding; settings: combination with AMP, increasing concentrations
Protocol: In order to evaluate if the compounds bound to the active site of CNOT7, an AMP competition experiment was performed. FIG. 5 provides a schematic of a surface plasmon resonance (SPR) experiment to interrogate if a CNOT7 binding compound binds in the active site of CNOT7. Briefly, AMP, which is a known binder to the active site, was interrogated at increasing concentrations for binding to CNOT7. As a next step, a CNOT7 binding compound was interrogated at increasing concentrations for binding to CNOT7. As a final step a combination of AMP and CNOT7 binding compound was interrogated by SPR at increasing concentrations for binding to CNOT7. If the signals were additive, AMP and the CNOT7 compounds bind to independent sites on CNOT7. […] In contrast, if the signals are not additive, this would indicate that AMP and CNOT7 […] for the same site. […] As a control, literature compounds that are active site binders, compounds A, B and C, are not additive when combined with AMP.

[4] = target: T2, CNOT7; experiment: CNOT7 inhibition assay (recombinant Avi-tagged CNOT7, deadenylation gel); format: biochemical; settings: 50 μM compound, 100 nM recombinant Avi-tagged CNOT7, 200 nM RNA
Protocol: Recombinant CNOT7 (with a C-terminal Avi tag) was produced in E. coli and purified to high purity. For this biochemical assay, deadenylation reactions are carried out by refolding 2 microM fluorescently labeled RNA substrate (5′ 6-FAM-[…] AAAAAA (SEQ ID NO:1) in the presence of 100 mM KCl and 3 mM MgCl2 at 37 C for 30 minutes and then pre-incubating the RNA with 500 microM compound (inhibitor, heterobifunctional, or the CNOT7 binding moiety of the heterobifunctional) at room temperature for 30 minutes (in the presence of 0.05% Tween-20) before initiating the deadenylation reaction with the addition of the recombinant CNOT7 (with Avi-tag). In the reactions, the final concentration of RNA was 200 nM, the final concentration of the compounds was 50 μM, and the final concentration of CNOT7 was 100 nM. Glycerol and BSA were included in the reactions to aid in protein stability and activity (final concentrations of 5% and 0.15 mg/mL, respectively). Timepoints were removed from the reaction and quenched by adding formamide loading dye including 10 mM EDTA. Samples were run on 15% TBE-Urea gels at 180V for 2-2.5 hours and imaged using an Azure imager with FAM detection settings. Bands were quantified using ImageJ and % full length substrate over time was normalized to band intensity at time zero.
This was to be expected as the CNOT7 binding moieties are not expected to bind in the active site or interfere with the ability of CNOT7 to deadenylate RNA. […] We speculate that the inhibition is caused by specific interaction of the heterobifunctional compounds with the recombinant Avi-tagged CNOT7.

[5] = target: T3, CNOT7:CNOT1 complex (Homo sapiens, UniProt Q9UIV1); experiment: CNOT7:CNOT1 recombinant assay (deadenylation gel); format: biochemical; settings: 50 microM compound, 50 nM CNOT7:CNOT1
T3 construct: purchased Helix Biosciences; host or cells: E. coli
Protocol: Recombinant CNOT7:CNOT1 (MIF4G domain: aa 1093-1317) complex was produced in E. coli including an 8×His affinity tag, which was cleaved prior to use. The resulting untagged complex was purified to high purity (Helix Biosciences). For this biochemical assay, deadenylation reactions are carried out by refolding 2 microM fluorescently labeled RNA substrate (5′ 6-FAM-[…] AAAAAA (SEQ ID NO:1)) in the presence of 100 mM KCl and 3 mM MgCl2 at 37 C for 30 minutes and then pre-incubating the RNA with 500 microM compound (inhibitor, heterobifunctional, or the CNOT7 binding moiety of the heterobifunctional) at room temperature for 30 minutes (in the presence of 0.05% Tween-20) before initiating the deadenylation reaction with the addition of recombinant CNOT7:CNOT1 complex. In the reactions, the final concentration of RNA was […], the final concentration of the compounds was 50 microM, and the final concentration of CNOT7:CNOT1 was 50 nM. Glycerol and BSA were included in the reactions to aid in protein stability and activity (final concentrations of 5% and 0.15 mg/mL, respectively). Timepoints were removed from the reaction and quenched by adding formamide loading dye including 10 mM EDTA. Samples were run on 15% TBE-Urea gels at 180V for 2-2.5 hours to resolve substrate and product bands and imaged using an Azure imager with FAM detection settings. Bands were quantified using ImageJ and % full length substrate over time was calculated by [Intensity of substrate band]/[Total intensity of full lane of gel].

[6] = Table 4, dissociation constant for CNOT7
[7] = Table 5, dissociation constant for CNOT7 by SPR
[8] = dissociation constant by SPR, Table 7

T1 sequence (Q9UIV1 with tags, fused parts or gaps): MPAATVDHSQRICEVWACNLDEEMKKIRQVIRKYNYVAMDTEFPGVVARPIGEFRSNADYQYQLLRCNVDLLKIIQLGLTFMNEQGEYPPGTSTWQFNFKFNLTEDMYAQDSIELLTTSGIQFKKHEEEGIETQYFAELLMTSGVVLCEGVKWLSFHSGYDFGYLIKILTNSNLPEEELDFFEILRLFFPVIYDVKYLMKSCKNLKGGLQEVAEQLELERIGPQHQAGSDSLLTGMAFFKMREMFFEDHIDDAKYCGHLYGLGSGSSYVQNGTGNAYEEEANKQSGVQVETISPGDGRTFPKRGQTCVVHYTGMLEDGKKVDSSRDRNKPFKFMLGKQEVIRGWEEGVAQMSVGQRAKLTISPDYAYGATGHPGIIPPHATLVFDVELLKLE
T2 sequence (Q9UIV1 whole entry): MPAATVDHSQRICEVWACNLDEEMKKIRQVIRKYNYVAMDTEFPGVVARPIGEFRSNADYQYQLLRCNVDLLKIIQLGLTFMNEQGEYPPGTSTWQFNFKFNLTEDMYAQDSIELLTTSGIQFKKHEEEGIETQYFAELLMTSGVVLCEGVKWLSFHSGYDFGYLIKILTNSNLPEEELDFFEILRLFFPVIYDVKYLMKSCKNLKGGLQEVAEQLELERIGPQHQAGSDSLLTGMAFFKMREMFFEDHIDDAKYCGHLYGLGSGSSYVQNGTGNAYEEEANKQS
T3 sequence (Q9UIV1 whole entry): as above
T3 sequence (A5YKK6 1093-1317 partner limits assumed): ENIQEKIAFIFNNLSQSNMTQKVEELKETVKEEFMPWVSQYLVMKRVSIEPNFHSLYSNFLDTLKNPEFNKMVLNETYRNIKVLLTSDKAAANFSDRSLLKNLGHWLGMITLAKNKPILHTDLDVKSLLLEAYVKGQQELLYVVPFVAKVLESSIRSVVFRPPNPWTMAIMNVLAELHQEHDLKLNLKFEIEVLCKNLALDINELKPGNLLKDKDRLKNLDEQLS

SMILES	interference with the ability of CNOT7 to degrade RNA [1]	Kd [2, 6] [nM]	SPR signal additive to AMP (additive = binds CNOT7 at a location other than the active site) [3]	Kd [2, 7] [nM]	inhibition of CNOT7 activity (rate of deadenylation vs DMSO control) [4]	inhibited or accelerated the deadenylation activity of the CNOT7:CNOT1 complex [5]	Kd ([2]; Table 6, dissociation constant for CNOT7 by SPR) [nM]	Kd [2, 8] [nM]	Activity by gel [1]
Cc1c[nH]c(=O)nc1SCC(=O)NCc1ccc2c(c1)OCO2 [Compound I-1]	did not interfere	1000 to 25000	additive to AMP						
Cc1c[nH]c(=O)nc1SCC(=O)NCc1ccccc1 [Compound I-3, N-Benzyl-2-[(5-methyl-2-oxo-1H-pyrimidin-4-yl)sulfanyl]acetamide]	did not interfere	> 25000	additive to AMP						
COc1ccc(CNC(=O)CSc2nc(=O)[nH]cc2C)cc1 [Compound I-4]	did not interfere	1000 to 25000	additive to AMP						
COc1ccc2c(c1)CCN(C(=O)CSc1nc(=O)[nH]cc1C)C2 [Compound I-198]				1000 to 25000	did not inhibit CNOT7 activity	neither			
COc1ccc(C(C)NC(=O)CSc2nc(=O)[nH]cc2C)c(F)c1 (centres unmarked) [Compound I-243]				100 to 1000	slightly inhibited CNOT7 activity	neither			
COc1ccc([C@@H](C)NC(=O)CSc2nc(=O)[nH]cc2Cl)c(F)c1 [Compound I-330]					slightly inhibited CNOT7 activity	neither	100 to 1000	1000 to 25000	
COc1ccc([C@@H](C)NC(=O)[C@@H](CCOCCOCCOCCn2cc(COCCOCCOCCOCCOc3ccc(NC(=O)Nc4nc(CC(=O)N5CCN(C)CC5)cs4)cc3)nn2)Sc2nc(=O)[nH]cc2Cl)c(F)c1 [Compound I-397]					inhibit some of the CNOT7 activity			1000 to 25000	+
COc1ccc2c(c1)C[C@H](COCCOCCOCCOCCn1cc(COCCOCCOc3ccc(NC(=O)Nc4nc(CC(=O)N5CCN(C)CC5)cs4)cc3)nn1)C(C(=O)CSc1nc(=O)[nH]cc1C)C2 (some centres unmarked) [Compound I-496]					inhibit some of the CNOT7 activity	neither		> 25000	+

— patent US20260199485A1, “RNA DEGRADERS AND USES THEREOF” (Arrakis Therapeutics, Inc., priority 2022, published 2026)
